Our source for the MIC values is ChEMBL document CHEMBL5030558, “Optimization and Evaluation of Novel Antifungal Agents for the Treatment of Fungal Infection” (J Med Chem, 2021).

Converted amounts (≈) assume the structure as drawn.

Common to all, as to format: functional
One experiment has as its system Nakaseomyces glabratus. As to the kind of experiment: Antifungal activity against Candida glabrata BG2 assessed as reduction in fungal growth incubated for 48 hrs by CLSI based broth microdilution method. Background: Dilution methods test growth across graded concentrations, often in twofold steps.
In a further experiment the test system is Aspergillus fumigatus. As to the kind of experiment: Antifungal activity against Aspergillus fumigatus AF293 assessed as reduction in fungal growth incubated for 48 hrs by CLSI based broth microdilution method.
The next experiment concerns Cryptococcus neoformans. In words: Antifungal activity against Cryptococcus neoformans H99 assessed as reduction in fungal growth incubated for 72 hrs by CLSI based broth microdilution method.
For another experiment, the system named is Candida albicans. In words: Antifungal activity against Candida albicans ATCC SC5314 assessed as reduction in fungal growth incubated for 48 hrs by CLSI based broth microdilution method.

`CC(C)(NCCc1ccc(OCc2cccc(F)c2)cc1)C(N)=O.CS(=O)(=O)O`: the MIC in the experiment with Nakaseomyces glabratus was above 128 µg/mL; in the experiment with Aspergillus fumigatus, above 128 µg/mL; in the experiment with Cryptococcus neoformans, 128 µg/mL; in the experiment with Candida albicans, above 128 µg/mL.

Turning to `Nc1ncccc1C(=O)NCCc1ccc(-c2ccc(Cl)c(Cl)c2)cc1`, the minimal inhibitory concentration (MIC) in the experiment with Nakaseomyces glabratus, in the experiment on Aspergillus fumigatus, in the experiment on Cryptococcus neoformans and with Candida albicans was 128 µg/mL (≈ 331 µM) in each case.

In the case of `CC(C)(NCCc1ccc(OCc2cccc(C(F)(F)F)c2)cc1)C(N)=O.CS(=O)(=O)O`, the MIC came to 128 µg/mL with Nakaseomyces glabratus, 128 µg/mL in the experiment with Aspergillus fumigatus, 64 µg/mL in the experiment on Cryptococcus neoformans and 128 µg/mL in the experiment on Candida albicans.

For `O=C(NCCc1ccc(-c2ccc(Cl)c(Cl)c2)cc1)c1cccnc1`, the minimal inhibitory concentration (MIC) in the experiment with Nakaseomyces glabratus, in the experiment with Aspergillus fumigatus, in the experiment on Cryptococcus neoformans and in the experiment with Candida albicans was 128 µg/mL (≈ 345 µM) in each case.

`CC(C)(NCCc1ccc(OCc2ccc(C(F)(F)F)cc2)cc1)C(N)=O.CS(=O)(=O)O`: the MIC in the experiment with Nakaseomyces glabratus came out at 128 µg/mL; in the experiment on Aspergillus fumigatus, 128 µg/mL; in the experiment on Cryptococcus neoformans, 64 µg/mL; with Candida albicans it was 128 µg/mL.

As to `CC(NCCc1ccc(OCc2ccccc2F)cc1)C(N)=O.CS(=O)(=O)O` (stereo not drawn), the MIC in the experiment on Nakaseomyces glabratus was above 128 µg/mL; in the experiment on Aspergillus fumigatus, above 128 µg/mL; in the experiment on Cryptococcus neoformans it was 128 µg/mL; in the experiment on Candida albicans it was above 128 µg/mL.

On to `Cl.O=C(NCCc1ccc(-c2ccc(Cl)c(Cl)c2)cc1)C1CCCN1` (stereo not drawn), for which the MIC stood at 16 µg/mL in the experiment on Nakaseomyces glabratus, 16 µg/mL in the experiment with Aspergillus fumigatus, 8 µg/mL in the experiment with Cryptococcus neoformans and 16 µg/mL with Candida albicans.

As to `CC(NCCc1ccc(OCc2ccc(F)cc2)cc1)C(N)=O.CS(=O)(=O)O` (racemic), the MIC in the experiment with Nakaseomyces glabratus is above 128 µg/mL; in the experiment with Aspergillus fumigatus, above 128 µg/mL; with Cryptococcus neoformans, 128 µg/mL; with Candida albicans, above 128 µg/mL.

Turning to `CC(NCCc1ccc(OCc2ccc(Cl)cc2)cc1)C(N)=O.CS(=O)(=O)O` (racemic), the MIC was above 128 µg/mL in the experiment on Nakaseomyces glabratus, above 128 µg/mL in the experiment with Aspergillus fumigatus, 64 µg/mL with Cryptococcus neoformans and above 128 µg/mL with Candida albicans.

On to `CC(NCCc1ccc(OCc2ccc(C(F)(F)F)cc2)cc1)C(N)=O.CS(=O)(=O)O` (racemic), for which the MIC was 128 µg/mL in the experiment on Nakaseomyces glabratus, 64 µg/mL with Aspergillus fumigatus, 32 µg/mL with Cryptococcus neoformans and 128 µg/mL in the experiment with Candida albicans.

Regarding `CC(NCCc1ccc(OCc2cccc(Cl)c2)cc1)C(N)=O.CS(=O)(=O)O` (racemic), the MIC in the experiment with Nakaseomyces glabratus was above 128 µg/mL; in the experiment with Aspergillus fumigatus, 128 µg/mL; with Cryptococcus neoformans it was 32 µg/mL; in the experiment with Candida albicans it was 128 µg/mL.

In the case of `CC(NCCc1ccc(OCc2ccccc2C(F)(F)F)cc1)C(N)=O.CS(=O)(=O)O` (racemic), the MIC is above 128 µg/mL in the experiment with Nakaseomyces glabratus, 64 µg/mL in the experiment on Aspergillus fumigatus, 64 µg/mL with Cryptococcus neoformans and above 128 µg/mL with Candida albicans.

Take `CC(NCCc1ccc(OCc2ccc(Cl)cc2Cl)cc1)C(N)=O.CS(=O)(=O)O` (racemic): the MIC is 32 µg/mL in the experiment on Nakaseomyces glabratus, 32 µg/mL in the experiment with Aspergillus fumigatus, 8 µg/mL in the experiment on Cryptococcus neoformans and 32 µg/mL in the experiment with Candida albicans.

Regarding `CC(NCCc1ccc(OCc2ccccc2Cl)cc1)C(N)=O.CS(=O)(=O)O` (racemic), the minimal inhibitory concentration (MIC) in the experiment on Nakaseomyces glabratus was above 128 µg/mL; in the experiment on Aspergillus fumigatus, 128 µg/mL; with Cryptococcus neoformans, 32 µg/mL; with Candida albicans it was above 128 µg/mL.

Consider `COc1cccc(COc2ccc(CCNC(C)C(N)=O)cc2)c1.CS(=O)(=O)O` (racemic), for which the MIC with Nakaseomyces glabratus is above 128 µg/mL; in the experiment on Aspergillus fumigatus it was above 128 µg/mL; in the experiment with Cryptococcus neoformans it was 128 µg/mL; in the experiment on Candida albicans it was 128 µg/mL.

As for `CC(NCCc1ccc(OCc2cccc(F)c2)cc1)C(N)=O.CS(=O)(=O)O` (racemic), the minimal inhibitory concentration (MIC) with Nakaseomyces glabratus was above 128 µg/mL; in the experiment on Aspergillus fumigatus, above 128 µg/mL; with Cryptococcus neoformans it was 64 µg/mL; in the experiment with Candida albicans, above 128 µg/mL.

`CC(NCCc1ccc(OCc2cccc(C(F)(F)F)c2)cc1)C(N)=O.CS(=O)(=O)O` (racemic): the MIC in the experiment with Nakaseomyces glabratus is 128 µg/mL; with Aspergillus fumigatus it was 64 µg/mL; in the experiment with Cryptococcus neoformans, 32 µg/mL; in the experiment on Candida albicans, 128 µg/mL.

By MIC is commonly meant the lowest concentration found to suppress growth.
